According to US10550142B2, “Quercetin-based compound” (AMOREPACIFIC CORPORATION, priority 2016, dated 2020):

Molecular target: T1, β-amyloid (Aβ1-42) (Homo sapiens, UniProt P05067)
T1 construct: β-amyloid (Aβ1-42, AnaSpec Inc, USA) was obtained; purchased AnaSpec Inc, USA
Assay: Beta-amyloid aggregation inhibition, fluorescence analysis (Thioflavin T assay)
Type: biochemical
Settings: compound 10 μM; for Increased RFU (% of Pos.Cont.): aggregated β-amyloid compared to the positive control (no compound) = 100; for decreased aggregation compared with the positive control: positive control taken as 100%
Protocol: The beta-amyloid aggregation inhibitory effect of quercetin 3-O-[3-O″-(E)-p-coumaroyl][β-D-glucopyranosyl-(1→3)-O-α-L-rhamnopyranosyl-(1→6)-O-β-D-glucopyranoside] and quercetin 3-O-[3-O″-(E)-p-coumaroyl][α-L-rhamnopyranosyl-(1→6)-O-β-D-glucopyranoside] was determined by fluorescence analysis (Thioflavin T assay). Specifically, β-amyloid (Aβ1-42, AnaSpec Inc, USA) was obtained and used at a concentration of 0.1 mg/ml. It was stored at −80° C. prior to use. Each of morin (20 μM), phenol red (20 μM), quercetin 3-O-[3-O″-(E)-p-coumaroyl][β-D-glucopyranosyl-(1→3)-O-α-L-rhamnopyranosyl-(1→6)-O-β-D-glucopyranoside] (1 mg/ml), and quercetin 3-O-[3-O″-(E)-p-coumaroyl][α-L-rhamnopyranosyl-(1→6)-O-β-D-glucopyranoside] (1 mg/ml) was diluted to these concentrations in DMSO. In order to determine the degree of inhibition of Aβ1-42 aggregation, each compound at the above concentration was diluted to 10 μM in 50 μL of 0.01 M sodium phosphate buffer solution. Then, 40 μL of 0.1 mg/ml Aβ1-42 was added thereto, followed by addition of 10 μL of 2 mM Thioflavin T. The fluorescence was then measured with a fluorescence spectrometer (RF-5300PC, SHIMADZU CORPORATION, Japan) at 37° C. and intervals of 5 minutes for 150 minutes. In the table above, “RFU” denotes relative fluorescence unit, and “increased RFU” indicates the amount of aggregated β-amyloid. “Increased RFU (% of Pos.Cont.)” indicates the percentage of aggregated β-amyloid compared to the positive control. “Novel substance 31” indicates quercetin 3-O-[3-O″-(E)-p-coumaroyl][β-D-glucopyranosyl-(1→3)-O-α-L-rhamnopyranosyl-(1→6)-O-β-D-glucopyranoside], and “novel substance 32” indicates quercetin 3-O-[3-O″-(E)-p-coumaroyl][α-L-rhamnopyranosyl-(1→6)-O-β-D-glucopyranoside].

T1 sequence (P05067 672-713 limits assumed): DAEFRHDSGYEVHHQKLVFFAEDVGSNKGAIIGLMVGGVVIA

Increased RFU (amount of aggregated β-amyloid) (Aβ1-42 0.1 mg/ml, 37° C., 150 minutes) | Increased RFU (% of Pos.Cont.) | decreased aggregation compared with the positive control | Structure (SMILES)
11471 RFU | 78.6% | 21.4% | O=c1c(O)c(-c2ccc(O)cc2O)oc2cc(O)cc(O)c12 [Morin, morin, reference compound]
 | 93.6% | 6.4% | O=S1(=O)OC(c2ccc(O)cc2)(c2ccc(O)cc2)c2ccccc21 [Phenol Red, phenol red, reference compound]
